Test results: patent US20250032454A1, “KDM1A INHIBITORS FOR THE TREATMENT OF DISEASE” (Imago Biosciences, Inc., priority 2021, published 2025)
Where two headings read alike, the source gives them in different places.

How the values were obtained:
[1] = test system: human hematopoietic stem cells (CD34+); assay: HbF induction and red cell maturation in CD34+ hematopoietic stem cells differentiated to red cells over 18 days (HbF by HPLC); type: cell-based; conditions: for concentration that inhibits/arrests red cell maturation: co-culture from Day 7, harvest Day 18; for concentration that induces HbF: co-culture from Day 7, harvest Day 18, total HbF by HPLC
Method: In an in vitro assay system, human hematopoietic stem cells (CD34^+) from a single donor are cultured to differentiate into red cells over the course of 18 days using standard culture methods with eythrogenic growth factors. Three test articles were co-cultured beginning on Day 7: the compound described in Example 11SS, a reversible inhibitor of LSD1; 4-(2-(4-aminopiperidin-1-yl)-5-(4-methoxyphenyl)-1-methyl-6-oxo-1,6-dihydropyrimidin-4-yl)-2-fluorobenzonitrile, a potent reversible inhibitor of LSD1; and 2-(((trans)-2-(4-(benzyloxy)phenyl)cyclopropyl)amino)-1-(4-methylpiperazin-1-yl) ethanone dihydrochloride (RN-1), a commercially available potent […] inhibitor of LSD1. Cells were harvested at Day 18 and total HbF was assayed by HPLC, e.g., using a C20 reverse phase column. 4-(2-(4-aminopiperidin-1-yl)-5-(4-methoxyphenyl)-1-methyl-6-oxo-1,6-dihydropyrimidin-4-yl)-2-fluorobenzonitrile and RN-1 both induce HbF at 3 nM but inhibit red cell maturation at 10 nM.

MV4;11 cells = assay: Cell Titer-Glo cell growth inhibition in MV4;11 cell line (Day 5 / Day 10); type: cell-based
How it was run: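 Cells seeded at 3750/well and treated with a 10-point, 4-fold dose curve from 0 to 50 µM; ATP-based luminescence viability read at Day 5. A portion is reseeded into fresh compound and media for 5 more days, read at Day 10; IC50 derived from luminescence.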

LSD1 = LSD1 (Homo sapiens, UniProt O60341); assay: LSD1 fluorescence coupling enzyme assay (HRP/Amplex Red, H3(1-21)K4me2 peptide), 10-dose IC50; type: biochemical; conditions: 10 μM histone H3(1-21)K4me2 peptide substrate, 3-fold serial dilution from 100 μM
How it was run: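 Fluorescence coupled assay: LSD1 demethylation of 10 μM H3(1-21)K4me2 peptide produces FAD-dependent H2O2, detected via HRP/Amplex Red as resorufin (Ex/Em 535/590 nm). IC50 from 10 doses, 3-fold serial dilution from 100 μM, in duplicate.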

[2] = Homo sapiens, MV4-11, 240 h, Day 10, read-out: Cell Titer-Glo IC50 (10 d)
[3] = Homo sapiens, MV4-11, 120 h, Day 5, read-out: Cell Titer-Glo IC50 (5 d)
[4] = Day 5, read-out: Cell Titer-Glo IC50 (5 d)

Compound	concentration that inhibits/arrests red cell maturation [1]	concentration that induces HbF [1]	IC50 (MV4;11 cells; [2])	IC50 (LSD1)	IC50 (MV4;11 cells; [3])	IC50 (MV4;11 cells; [4])	IC50 (MV4;11 cells; Day 10, read-out: Cell Titer-Glo IC50 (10 d))
COc1ccc(-c2c(-c3ccc(C#N)c(F)c3)nc(N3CCC(N)CC3)n(C)c2=O)cc1 [4-(2-(4-aminopiperidin-1-yl)-5-(4-methoxyphenyl)-1-methyl-6-oxo-1,6-dihydropyrimidin-4-yl)-2-fluorobenzonitrile]	10 nM	3 nM					
CN1CCN(C(=O)CN[C@@H]2C[C@H]2c2ccc(OCc3ccccc3)cc2)CC1.Cl.Cl (relative stereo) [RN-1, 2-(((trans)-2-(4-(benzyloxy)phenyl)cyclopropyl)amino)-1-(4-methylpiperazin-1-yl) ethanone dihydrochloride, reference compound]	10 nM	3 nM					
COC1CCN(c2ccc(-n3nc(NC[C@H]4CCC[C@H](N)C4)cc3-c3ccc(C#N)c(F)c3)cc2)CC1 [Example 43, 4-(3-((((1S,3S)-3-aminocyclohexyl)methyl)amino)-1-(4-(4-methoxypiperidin-1-yl)phenyl)-1H-pyrazol-5-yl)-2-fluorobenzonitrile]			< 500 nM	< 500 nM			
CN[C@@H]1CCCC(CNc2cc(-c3ccc(C#N)c(F)c3)n(-c3ccc(OC)cc3)n2)C1 (single isomer, unassigned) [Example 32b]				1000 to 10000 nM	1000 to 10000 nM		
Cn1cc2cc(-n3nc(NC[C@H]4CCC[C@H](N)C4)c(Cl)c3-c3ccc(C#N)c(F)c3)ccc2n1 [Example 37, 4-(3-((((1S,3S)-3-aminocyclohexyl)methyl)amino)-4-chloro-1-(2-methyl-2H-indazol-5-yl)-1H-pyrazol-5-yl)-2-fluorobenzonitrile]			< 500 nM	< 500 nM	< 500 nM		
COc1ccc(-n2nc(NC[C@H]3CCC[C@@H](CN)C3)cc2-c2ccc(C#N)c(F)c2)cc1 [Example 77, 4-(3-((((1S,3R)-3-(aminomethyl)cyclohexyl)methyl)amino)-1-(4-methoxyphenyl)-1H-pyrazol-5-yl)-2-fluorobenzonitrile]			1000 to 10000 nM	1000 to 10000 nM	1000 to 10000 nM		
Cn1nnc2cc(-n3nc(NC[C@H]4CCC[C@H](N)C4)cc3-c3ccc(C#N)c(F)c3)ccc21 [Example 68, 4-(3-((((1S,3S)-3-aminocyclohexyl)methyl)amino)-1-(1-methyl-1H-benzo[d][1,2,3]triazol-5-yl)-1H-pyrazol-5-yl)-2-fluorobenzonitrile]			< 500 nM	< 500 nM	< 500 nM		
Cn1ccc2cc(-n3nc(NCC4CCC[C@H](N)C4)cc3-c3ccc(C#N)c(F)c3)ccc21 (stereo partly drawn) [Example 66, 4-(3-((((1,3S)-3-aminocyclohexyl)methyl)amino)-1-(1-methyl-1H-indol-5-yl)-1H-pyrazol-5-yl)-2-fluorobenzonitrile]			< 500 nM	< 500 nM	< 500 nM		
N#Cc1ccc(-c2cc(NC[C@H]3CCC[C@H](N)C3)nn2-c2cccc(-c3cnn(CCO)c3)c2)cc1F [Example 57, 4-(3-((((1S,3S)-3-aminocyclohexyl)methyl)amino)-1-(3-(1-(2-hydroxyethyl)-1H-pyrazol-4-yl)phenyl)-1H-pyrazol-5-yl)-2-fluorobenzonitrile]			< 500 nM	< 500 nM	1000 to 10000 nM		
COc1ccc(-n2nc(N3CCCC4CCCCC43)cc2-c2ccc(C#N)c(F)c2)cc1 (stereo not shown) [Example 82, 2-fluoro-4-(1-(4-methoxyphenyl)-3-(octahydroquinolin-1(2H)-yl)-1H-pyrazol-5-yl)benzonitrile]			> 10000 nM	1000 to 10000 nM			
COc1ccc(-n2nc(NC[C@H]3CCC[C@@H](N)C3)cc2-c2ccc(C#N)c(F)c2)cc1 (single isomer, unassigned) [Example 5a]				< 500 nM	500 to 1000 nM		
Cn1cc2cc(-n3nc(NC[C@H]4CCNC4)cc3-c3ccc(C#N)c(F)c3)ccc2n1 [Example 21S, (S)-2-fluoro-4-(1-(2-methyl-2H-indazol-5-yl)-3-((pyrrolidin-3-ylmethyl)amino)-1H-pyrazol-5-yl)benzonitrile]				< 500 nM	< 500 nM		
N#Cc1ccc(-c2cc(NCC3CCCNCC3)nn2-c2ccc(N3CCS(=O)(=O)CC3)cc2)cc1F (stereo not shown) [Example 26, 4-(3-((azepan-4-ylmethyl)amino)-1-(4-(1,1-dioxidothiomorpholino)-phenyl)-1H-pyrazol-5-yl)-2-fluorobenzonitrile]			< 500 nM	< 500 nM	< 500 nM		
N#Cc1ccc(-c2cc(NC[C@H]3CCC[C@H](N)C3)nn2-c2ccc(N3CCCC3)cc2)cc1F [Example 19, 4-(3-((((1S,3S)-3-aminocyclohexyl)methyl)amino)-1-(4-(pyrrolidin-1-yl)phenyl)-1H-pyrazol-5-yl)-2-fluorobenzonitrile]			< 500 nM	< 500 nM	< 500 nM		
COc1ccc(-n2nc(NCC3CCCNC3)cc2-c2ccc(C#N)c(F)c2)cc1 (stereo not shown) [Example 3, 2-fluoro-4-(1-(4-methoxyphenyl)-3-((piperidin-3-ylmethyl)amino)-1H-pyrazol-5-yl)benzonitrile]				< 500 nM	< 500 nM		
CN[C@H]1CCCC(CNc2cc(-c3ccc(C#N)c(F)c3)n(-c3ccc(OC)cc3)n2)C1 (single isomer, unassigned) [Example 32a]				< 500 nM	1000 to 10000 nM		
Cn1cc2cc(-n3nc(NCC4CCNCC4)cc3-c3ccc(C#N)c(F)c3)ccc2n1 [Example 10, 2-Fluoro-4-(1-(2-methyl-2H-indazol-5-yl)-3-((piperidin-4-ylmethyl)amino)-1H-pyrazol-5-yl)benzonitrile]				< 500 nM	< 500 nM		
(R)-4-(3-(3-aminopiperidin-1-yl)-1-(p-tolyl)-1H-pyrazol-5-yl)-2-fluorobenzonitrile/(R)-4-(5-(3-aminopiperidin-1-yl)-1-(p-tolyl)-1H-pyrazol-3-yl)-2-fluorobenzonitrile [Example 38]				< 500 nM		1000 to 10000 nM	
COc1ccc(-n2nc(NCC3CC3N)cc2-c2ccc(C#N)c(F)c2)cc1 (single isomer, unassigned) [Example 29b, 4-(3-(((2-aminocyclopropyl)methyl)amino)-1-(4-methoxyphenyl)-1H-pyrazol-5-yl)-2-fluorobenzonitrile]				< 500 nM		1000 to 10000 nM	< 500 nM
N#Cc1ccc(-c2cc(NC[C@@H]3CCCNCC3)nn2-c2ccc(N3CCS(=O)(=O)CC3)cc2)cc1F (single isomer, unassigned) [Example 26a]			< 500 nM	< 500 nM	< 500 nM		
COc1ccc(-n2nc(NC[C@H]3CCC[C@H](N)C3)cc2-c2ccc(C#N)c(F)c2)cc1 [Example 11SS, 4-(3-((((1S,3S)-3-aminocyclohexyl)methyl)amino)-1-(4-methoxyphenyl)-1H-pyrazol-5-yl)-2-fluorobenzonitrile]	300 nM	a higher concentration	< 500 nM	< 500 nM	500 to 1000 nM		
N#Cc1ccc(-c2cc(NC[C@H]3CCC[C@H](N)C3)nn2-c2ccc(-c3cnn(CCO)c3)cc2)cc1F [Example 56, 4-(3-((((1S,3S)-3-aminocyclohexyl)methyl)amino)-1-(4-(1-(2-hydroxyethyl)-1H-pyrazol-4-yl)phenyl)-1H-pyrazol-5-yl)-2-fluorobenzonitrile]			< 500 nM	< 500 nM	< 500 nM		
N#Cc1ccc(-c2cc(NCC3CCCNCC3)nn2-c2ccc(N3CCN(CCO)CC3)cc2)cc1F (stereo not shown) [Example 27, 4-(3-((azepan-4-ylmethyl)amino)-1-(4-(4-(2-hydroxyethyl)piperazin-1-yl)phenyl)-1H-pyrazol-5-yl)-2-fluorobenzonitrile]			< 500 nM	< 500 nM	< 500 nM		
CO[C@H]1CCN(c2ccc(-n3nc(NC[C@H]4CCC[C@H](N)C4)cc3-c3ccc(C#N)c(F)c3)c(F)c2)C1 [Example 20, 4-(3-((((1S,3S)-3-aminocyclohexyl)methyl)amino)-1-(2-fluoro-4-((S)-3-methoxypyrrolidin-1-yl)phenyl)-1H-pyrazol-5-yl)-2-fluorobenzonitrile]			< 500 nM	< 500 nM			
COc1ccc(-n2nc(NCC3CCNC3)cc2-c2ccc(C#N)c(F)c2)cc1 (stereo not shown) [Example 8, 2-fluoro-4-(1-(4-methoxyphenyl)-3-((pyrrolidin-3-ylmethyl)amino)-1H-pyrazol-5-yl)benzonitrile]				< 500 nM	< 500 nM		
